The text below walks through data of patent US5436254A, “Carbostyril derivatives” (Otsuka Pharmaceutical Company, Ltd., priority 1989, dated 1995).

In the assay the target is V1 receptor (Rattus norvegicus, UniProt P30560). As to the kind of experiment: biochemical. In kind it is binding.
Chain of V1 receptor (P30560 whole entry): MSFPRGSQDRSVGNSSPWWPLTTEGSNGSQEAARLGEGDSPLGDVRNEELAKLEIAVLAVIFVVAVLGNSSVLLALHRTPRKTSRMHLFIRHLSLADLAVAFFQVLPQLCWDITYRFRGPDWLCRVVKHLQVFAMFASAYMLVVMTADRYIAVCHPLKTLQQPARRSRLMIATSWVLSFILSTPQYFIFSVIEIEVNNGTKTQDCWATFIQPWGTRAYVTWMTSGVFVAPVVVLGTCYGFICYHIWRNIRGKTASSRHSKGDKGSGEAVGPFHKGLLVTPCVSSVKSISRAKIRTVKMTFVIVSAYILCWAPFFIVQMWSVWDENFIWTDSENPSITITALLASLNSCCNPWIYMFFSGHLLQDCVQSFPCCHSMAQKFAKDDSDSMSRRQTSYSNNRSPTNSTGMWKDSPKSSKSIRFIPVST
In the case of `NC(=O)CCCCCCCOc1ccc(C(=O)N2CCC(N3C(=O)CCc4ccccc43)CC2)cc1` [Example 15, 1-{1-[4-(7-Carbamoylheptyloxy)benzoyl]-4-piperidinyl}-3,4-dihydrocarbostyril], the IC50 is 260 nM.

As for `NC(=O)CNC(=O)CCCCCCCOc1ccc(C(=O)N2CCC(N3C(=O)CCc4ccccc43)CC2)cc1` [Example 16, 1-(1-[4-(7-Carbamoylmethylaminocarbonylheptyloxy)benzoyl]-4-piperidinyl}-3,4-dihydrocarbostyril], inhibition was half-maximal at 150 nM (IC50).

Regarding `CN(C)CCCOc1ccc(C(=O)N2CCC(N3C(=O)CCc4ccccc43)CC2)cc1` [Example 17, 1-{1-[4-(3-Dimethylaminopropoxy)benzoyl]-4-piperidinyl}-3,4-dihydrocarbostyril], the IC50 came out at 430 nM.

In turn, `O=C(c1ccc(OCCCNCc2ccccc2)cc1)N1CCC(N2C(=O)CCc3ccccc32)CC1` [Example 18, 1-{1-[4-(3-Benzylaminopropoxy)benzoyl]-4-piperidinyl}-3,4-dihydrocarbostyril] displayed a half-maximal inhibitory concentration (IC50) of 270 nM.

As to `CS(=O)(=O)NCCCOc1ccc(C(=O)N2CCC(N3C(=O)CCc4ccccc43)CC2)cc1` [Example 22, 1-{1-[4-(3-Methylsulfonylaminopropoxy)benzoyl]-4-piperidinyl}-3,4-dihydrocarbostyril], the IC50 is 340 nM.

`CNC(=O)NCCCOc1ccc(C(=O)N2CCC(N3C(=O)CCc4ccccc43)CC2)cc1` [Example 23, 1-[1-{4-[3-(3-Methylureido)propoxy]benzoyl}-4-piperidinyl]-3,4-dihydrocarbostyril] had an IC50 of 240 nM.

Take `CC(=O)NCC(=O)NCCCCOc1ccc(C(=O)N2CCC(N3C(=O)CCc4ccccc43)CC2)cc1` [Example 25]: half-maximal inhibition (IC50) required 240 nM.

`COC(=O)NCCCCOc1ccc(C(=O)N2CCC(N3C(=O)CCc4ccccc43)CC2)cc1` [Example 27, 1-{1-[4-(4-Methoxycarbonylaminobutoxy)benzoyl]-4-piperidinyl}-3,4-dihydrocarbostyril] registered an IC50 of 270 nM.

For the molecule `CS(=O)(=O)NCCCCOc1ccc(C(=O)N2CCC(N3C(=O)CCc4ccccc43)CC2)cc1` [Example 28, 1-{1-[4-(4-Methylsulfonylaminobutoxy)benzoyl]-4-piperidinyl}-3,4-dihydrocarbostyril], the 50% inhibitory concentration (IC50) worked out at 160 nM.

Take `CNCC(O)CCCOc1ccc(C(=O)N2CCC(N3C(=O)CCc4ccccc43)CC2)cc1` (stereo not shown) [Example 30, 1-{1-[4-(5-Methylamino-4-hydroxypentyloxy)benzoyl]-4-piperidinyl}-3,4-dihydrocarbostyril]: the 50% inhibitory concentration (IC50) was 330 nM.

In the case of `O=C(c1ccc(OCCCO)cc1)N1CCC(N2C(=O)CCc3ccccc32)CC1` [Example 32, 1-{1-[4-(3-Hydroxypropoxy)benzoyl]-4-piperidinyl}-3,4-dihydrocarbostyril], the midpoint of inhibition, the IC50, lay at 460 nM.

In turn, `CC(=O)OCCCOc1ccc(C(=O)N2CCC(N3C(=O)CCc4ccccc43)CC2)cc1` [Example 33, 1-{1-[4-(3-Acetoxypropoxy)benzoyl]-4-piperidinyl}-3,4-dihydrocarbostyril] had an IC50 of 450 nM.

Consider `NC(=O)OCCCOc1ccc(C(=O)N2CCC(N3C(=O)CCc4ccccc43)CC2)cc1` [Example 35, 1-{1-[4-(3-Carbamoyloxypropoxy)benzoyl]-4-piperidinyl}-3,4-dihydrocarbostyril], for which the midpoint of inhibition, the IC50, lay at 150 nM.

For the molecule `O=C(c1ccc(OCCCCO)cc1)N1CCC(N2C(=O)CCc3ccccc32)CC1` [Example 36, 1-{1-[4-(4-Hydroxybutoxy)benzoyl]-4-piperidinyl}-3,4-dihydrocarbostyril], the midpoint of inhibition, the IC50, lay at 370 nM.

`CC(=O)OCCCCOc1ccc(C(=O)N2CCC(N3C(=O)CCc4ccccc43)CC2)cc1` [Example 37, 1-{1-[4-(4-Acetoxybutoxy)benzoyl]-4-piperidinyl}-3,4-dihydrocarbostyril] registered an IC50 of 360 nM.

On to `NC(=O)OCCCCOc1ccc(C(=O)N2CCC(N3C(=O)CCc4ccccc43)CC2)cc1` [Example 38, 1-{1-[4-(4-Carbamoyloxybutoxy)benzoyl]-4-piperidinyl}-3,4-dihydrocarbostyril], for which the IC50 came out at 270 nM.

`CC(=O)OCCCCCOc1ccc(C(=O)N2CCC(N3C(=O)CCc4ccccc43)CC2)cc1` [Example 39, 1-{1-[4-(5-Acetoxypentyloxy)benzoyl]-4-piperidinyl}-3,4-dihydrocarbostyril] returned an IC50 of 150 nM.

`C=CCOc1ccc(C(=O)N2CCC(N3C(=O)CCc4ccccc43)CC2)cc1` [Example 44, 1-[1-(4-Allyloxybenzoyl)-4-piperidinyl]-3,4-dihydrocarbostyril]: the IC50 stood at 300 nM.

With `O=C(c1ccc(Oc2ccccc2)cc1)N1CCC(N2C(=O)CCc3ccccc32)CC1` [Example 45, 1-[1-(4-Phenyloxybenzoyl)-4-piperidinyl]-3,4-dihydrocarbostyril], the IC50 was found to be 200 nM.

For `CNc1ccc(C(=O)N2CCC(N3C(=O)CCc4ccccc43)CC2)c(OC)c1` [Example 48, 1-[1-(2-Methoxy-4-methylaminobenzoyl)-4-piperidinyl]-3,4-dihydrocarbostyril], the IC50 worked out at 400 nM.

`COc1cc(N(C)C)ccc1C(=O)N1CCC(N2C(=O)CCc3ccccc32)CC1` [Example 49, 1-[1-(2-Methoxy-4-dimethylaminobenzoyl)-4-piperidinyl]-3,4-dihydrocarbostyril] came in with an IC50 of 200 nM.

The molecule `CN(C)c1ccc(C(=O)N2CCC(N3C(=O)CCc4ccccc43)CC2)c(N(C)C)c1` [Example 50, 1-{1-[2,4-Bis(N,N-dimethylamino)benzoyl]-4-piperidinyl}-3,4-dihydrocarbostyril] displayed an IC50 of 400 nM.

`COc1ccc(C(=O)N2CCC(N3C(=O)CCc4ccccc43)CC2)c(N2CCOC2=O)c1` [Example 51, 1-{1-[2-(2-Oxooxazolydine-3-yl)-4-methoxybenzoyl]-4-piperidinyl}-3,4-dihydrocarbostyril]: it took 490 nM to reach half-maximal inhibition (IC50).

`CCOc1ccc(C(=O)N2CCC(N3C(=O)CCc4ccccc43)CC2)c(OC)c1` [Example 52, 1-[1-(2-Methoxy-4-ethoxybenzoyl)-4-piperidinyl]-3,4-dihydrocarbostyril] registered an IC50 of 80 nM.

For the molecule `COc1cc(SC)ccc1C(=O)N1CCC(N2C(=O)CCc3ccccc32)CC1` [Example 53, 1-[1-(2-Methoxy-4-methylthiobenzoyl)-4-piperidinyl]-3,4-dihydrocarbostyril], 80 nM corresponded to half-maximal inhibition (IC50).

On to `COc1cc(Cl)ccc1C(=O)N1CCC(N2C(=O)CCc3ccccc32)CC1` [Example 54, 1-[1-(2-Methoxy-4-chlorobenzoyl)-4-piperidinyl]-3,4-dihydrocarbostyril], for which the half-maximal inhibitory concentration (IC50) was 270 nM.

Turning to `COc1ccc(C(=O)N2CCC(N3C(=O)CCc4ccccc43)CC2)c(N(C)C)c1` [Example 55, 1-[1-(2-Dimethylamino-4-methoxybenzoyl)-4-piperidinyl]-3,4-dihydrocarbostyril], half-maximal inhibition (IC50) was put at 200 nM.

`CCNc1cc(OC)ccc1C(=O)N1CCC(N2C(=O)CCc3ccccc32)CC1` [Example 56, 1-[1-(2-Ethylamino-4-methoxybenzoyl)-4-piperidinyl]-3,4-dihydrocarbostyril]: inhibition was half-maximal at 330 nM (IC50).

On to `CCCNc1cc(OC)ccc1C(=O)N1CCC(N2C(=O)CCc3ccccc32)CC1` [Example 57, 1-[1-(2-Propylamino-4-methoxybenzoyl)-4-piperidinyl]-3,4-dihydrocarbostyril], for which the IC50 was 270 nM.

In turn, `CCN(C)c1cc(OC)ccc1C(=O)N1CCC(N2C(=O)CCc3ccccc32)CC1` [Example 58, 1-{1-[2-(N-Methyl-N-ethylamino)-4-methoxybenzoyl]-4-piperidinyl}-3,4-dihydrocarbostyril] displayed an IC50 of 450 nM.

Regarding `CCOc1cc(OC)ccc1C(=O)N1CCC(N2C(=O)CCc3ccccc32)CC1` [Example 59, 1-[1-(2-Ethoxy-4-methoxybenzoyl)-4-piperidinyl]-3,4-dihydrocarbostyril], the IC50 came to 200 nM.

With `COc1ccc(C(=O)N2CCC(N3C(=O)CCc4ccccc43)CC2)c(O)c1` [Example 60, 1-[1-(2-Hydroxy-4-methoxybenzoyl)-4-piperidinyl]-3,4-dihydrocarbostyril], the IC50 stood at 200 nM.

`COc1ccc(C(=O)N2CCC(N3C(=O)CCc4ccccc43)CC2)c(OC(C)=O)c1` [Example 61, 1-[1-(2-Acetoxy-4-methoxybenzoyl)-4-piperidinyl]-3,4-dihydrocarbostyril] showed an IC50 of 300 nM.

The molecule `C=CCOc1cc(OC)ccc1C(=O)N1CCC(N2C(=O)CCc3ccccc32)CC1` [Example 62, 1-[1-(2-Allyloxy-4-methoxybenzoyl)-4-piperidinyl]-3,4-dihydrocarbostyril] registered an IC50 of 150 nM.

On to `COc1ccc(C(=O)N2CCC(N3C(=O)CCc4ccccc43)CC2)c(OCCCO)c1` [Example 63, 1-{1-[2-(3-Hydroxypropoxy)-4-methoxybenzoyl]-piperidinyl}-3,4-dihydrocarbostyril], for which it took 270 nM to reach half-maximal inhibition (IC50).

In turn, `COc1ccc(C(=O)N2CCC(N3C(=O)CCc4ccccc43)CC2)c(OCCCOC(C)=O)c1` [Example 64, 1-{1-[2-(3-Acetoxypropoxy)-4-methoxybenzoyl]-piperidinyl}-3,4-dihydrocarbostyril] showed an IC50 of 460 nM.

In turn, `COc1ccc(C(=O)N2CCC(N3C(=O)CCc4ccccc43)CC2)c(OCCCOC(N)=O)c1` [Example 65, 1-{1-[2-(3-Carbamoyloxypropoxy)-4-methoxybenzoyl]-4-piperidinyl}-3,4-dihydrocarbostyril] had an IC50 of 270 nM.

Regarding `COCCCOc1cc(OC)ccc1C(=O)N1CCC(N2C(=O)CCc3ccccc32)CC1` [Example 66, 1-{1-[2-(3-Methoxypropoxy)-4-methoxybenzoyl]-piperidinyl}-3,4-dihydrocarbostyril], the half-inhibitory concentration (IC50) worked out at 410 nM.

For `COc1ccc(C(=O)N2CCC(N3C(=O)CCc4ccccc43)CC2)c(OCCCC(N)=O)c1` [Example 67, 1-{1-[2-(3-Carbamoylpropoxy)-4-methoxybenzoyl]-4-piperidinyl}-3,4-dihydrocarbostyril], half-maximal inhibition (IC50) was put at 470 nM.

Molecule `COc1ccc(C(=O)N2CCC(N3C(=O)CCc4ccccc43)CC2)c(OCCO)c1` [Example 68, 1-{1-[2-(2-Hydroxyethoxy)-4-methoxybenzoyl]-4-piperidinyl}-3,4-dihydrocarbostyril] displayed an IC50 of 360 nM.

As a reminder, the IC50 is the concentration that inhibits the measured activity by half. Low values mean higher potency, high ones lower potency.
